Laboratory results published in US20040228889A1, “Use of N-arylmethylene ethylenediaminetriacetates, N-arylmethylene iminodiacetated or N,N'-diarylmethylene ethylenediamineacetates as doners of NO” (L'OREAL S.A., priority 2003, published 2004).

Columns and labels:
[1] = biological target: T1, inducible NO synthase (NOS2) (Homo sapiens, UniProt P35228); assay: screening test of the modulation of induction of NOS2 by normal human keratinocytes (nitrite and nitrate measurement); format: cell-based; conditions: for % inhibition: cytokine-induced normal human keratinocytes, nitrites and nitrates
T1 construct: endogenous in cells; host or cells: normal human keratinocytes (primary culture), induced with interferon-gamma and interleukin 1-beta
T1 sequence (P35228 whole entry): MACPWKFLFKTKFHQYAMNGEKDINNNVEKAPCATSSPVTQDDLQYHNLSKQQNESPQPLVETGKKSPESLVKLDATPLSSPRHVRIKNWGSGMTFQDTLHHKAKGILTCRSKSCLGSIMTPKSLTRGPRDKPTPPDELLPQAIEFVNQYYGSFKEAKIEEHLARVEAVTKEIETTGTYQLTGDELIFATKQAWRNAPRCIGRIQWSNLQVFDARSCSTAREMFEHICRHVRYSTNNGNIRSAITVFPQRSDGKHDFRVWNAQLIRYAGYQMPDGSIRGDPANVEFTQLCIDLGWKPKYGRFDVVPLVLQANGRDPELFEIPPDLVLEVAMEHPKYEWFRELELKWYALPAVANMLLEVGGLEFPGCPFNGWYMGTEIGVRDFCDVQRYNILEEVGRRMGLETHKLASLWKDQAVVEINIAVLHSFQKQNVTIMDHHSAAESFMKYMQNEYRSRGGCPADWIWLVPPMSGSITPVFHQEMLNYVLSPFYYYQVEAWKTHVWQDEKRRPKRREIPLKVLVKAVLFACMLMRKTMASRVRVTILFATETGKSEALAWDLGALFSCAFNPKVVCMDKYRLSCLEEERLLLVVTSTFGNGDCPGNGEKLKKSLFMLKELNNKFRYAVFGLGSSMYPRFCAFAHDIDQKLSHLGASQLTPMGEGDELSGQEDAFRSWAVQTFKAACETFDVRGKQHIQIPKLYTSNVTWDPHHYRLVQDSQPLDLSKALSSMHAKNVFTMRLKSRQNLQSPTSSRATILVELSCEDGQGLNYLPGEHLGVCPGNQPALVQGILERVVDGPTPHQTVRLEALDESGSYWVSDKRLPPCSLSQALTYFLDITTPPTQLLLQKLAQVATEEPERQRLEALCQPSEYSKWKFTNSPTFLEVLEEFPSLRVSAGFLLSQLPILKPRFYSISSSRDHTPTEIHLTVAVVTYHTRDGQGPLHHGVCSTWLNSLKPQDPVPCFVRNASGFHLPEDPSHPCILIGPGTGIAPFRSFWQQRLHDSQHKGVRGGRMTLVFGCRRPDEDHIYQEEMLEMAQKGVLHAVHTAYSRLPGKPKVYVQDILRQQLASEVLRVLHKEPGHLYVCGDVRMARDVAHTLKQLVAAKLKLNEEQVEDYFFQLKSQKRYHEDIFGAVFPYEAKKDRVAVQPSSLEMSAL
Experimental: The activity of N,N′-bis-(3,4,5-trimethoxybenzyl) ethylenediamine-diacetic acid on the inducible NO synthase was evaluated in the assay described by Heck et al. (J.B.C., vol. 267, No. 30, 21277-21280, 25 Oct. 1992), a screening test of the modulation of induction of NOS2 by normal human keratinocytes. The objective of this test is, briefly, to evaluate the concentration of nitrate and nitrite after stimulation of the NO-synthase 2.
The test is carried out on a culture of normal human keratinocytes, derived from samples taken. The induction of the inducible NO synthase (NOS2) was caused by the addition of a combination of several cytokines to the culture medium. The product tested was applied at three concentrations varying from 10 to 1000 μM.
The product tested was classed in one of the following two categories: inhibitor (I) or donor (D) of NO (nitric oxide) according to its capacity to diminish or increase, respectively, the quantity of nitrites and nitrates produced compared to the control signal […].
The following controls were introduced in the test:
A: positive control (induction of the enzyme): mixtures of interferon-γ(1000 u/ml) and interleukin 1-β (100 u/ml)
In order to determine the activity of the test product the quantity of stable NO reaction products (nitrites and nitrates) is measured with the aid of the “nitric colorimetric assay” kit sold by the Boehringer company under catalogue number 1756.28.
N,N′-bis(3,4,5-trimethoxybenzyl) ethylenediamine-diacetic acid was tested at concentrations of 100 μM, 500 μM and 1000 μM in ethanol.

[2] = test system: normal human keratinocytes; assay: cytotoxicity, % diminution of the signal compared with the control; format: cell-based; conditions: concentration equal to or lower than 500 μM
From the text: Moreover, the cytotoxicity was expressed as % diminution of the signal compared with the control. A product was considered not to be very cytotoxic from 0-20%, acceptable up to 40% and not retained for values >40%.

`COc1cc(CN(CCN(CC(=O)O)Cc2cc(OC)c(OC)c(OC)c2)CC(=O)O)cc(OC)c1OC` [N,N′-bis-(3,4,5-trimethoxybenzyl) ethylenediamine-diacetic acid] was tested, and the “classification as inhibitor (I) or donor (D) of NO” value ([1]; quantity of nitrites and nitrates produced compared to the control signal) was “NO donor effect”, the “% inhibition” value ([1]; test product 100 μM in ethanol) was 29% and the “% inhibition” value ([1]; test product 500 μM in ethanol) was 70%. The “% inhibition” value ([1]; test product 1000 μM in ethanol) was 84% and the cytotoxicity [2] was “not toxic”.
